Test results as given in US5384243A, “Method for screening an agent for its ability to prevent cell transformation” (priority 1992, dated 1995).

Columns and labels:
[1] = tested on: human muscarinic acetylcholine receptors; assay: Focus assay after transfection of NIH/3T3 cells, mACHR genes in general; assay type: cell-based; details: atropine 10 μM
Source text: (§1) Transfection. […] Mass populations expressing the transfected neogene were selected for their ability to grow in the presence of geneticin (G418) (Gibco). Transformed foci were scored in stained plates of NIH/3T3 2-3 weeks after transfection. Individual G418 colonies or transformed foci were isolated with the aid of cloning cylinders, and maintained in Dulbecco's Modified Eagle Medium containing 10% calf serum.
(§2) DNA Constructs. […] Analysis of Receptor Expression.
(§3) Foci of transformation were scored after 2-3 weeks. The efficiency of transfection was determined by scoring neo resistant colonies in medium containing G418 (0.750 mg/ml). […] Results represent the average of three independent experiments.

m2 mACHR [2] = biological target: T1, m2 mACHR (Homo sapiens, UniProt P08172)
T1 sequence (P08172 1-466): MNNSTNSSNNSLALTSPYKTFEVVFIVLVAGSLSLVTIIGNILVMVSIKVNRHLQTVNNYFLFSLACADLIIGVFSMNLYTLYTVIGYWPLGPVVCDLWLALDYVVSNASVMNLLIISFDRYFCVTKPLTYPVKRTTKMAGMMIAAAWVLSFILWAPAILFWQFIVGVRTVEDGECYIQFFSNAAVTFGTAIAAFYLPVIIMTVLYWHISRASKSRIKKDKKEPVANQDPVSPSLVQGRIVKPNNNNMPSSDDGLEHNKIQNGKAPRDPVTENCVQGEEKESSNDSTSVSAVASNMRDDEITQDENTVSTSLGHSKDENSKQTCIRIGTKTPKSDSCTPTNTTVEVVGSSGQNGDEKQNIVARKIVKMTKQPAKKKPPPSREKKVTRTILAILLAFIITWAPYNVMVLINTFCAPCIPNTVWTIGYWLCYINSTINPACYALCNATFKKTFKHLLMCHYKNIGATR

NIH/3T3 cells [3] = assay: [3H]NMS binding to membranes of vector (pDS, neo) transfectants
m2 mACHR [4] = biological target: T1, m2 mACHR; assay: cAMP assay, forskolin-stimulated, m2 clones; assay type: cell-based; design: expressed in transfected cells; host or cells: NIH/3T3 murine fibroblasts (plasmid pDS m2); details: 1 mM carbachol, m2 (FIG. 4)
m2 mACHR [5] = biological target: T1, m2 mACHR; assay: Focus assay after transfection of NIH/3T3 cells, pDS m2; assay type: cell-based; design: expressed in transfected cells; host or cells: NIH/3T3 murine fibroblasts (plasmid pDS m2); details: for Focus-forming activity: pDS m2
Source text: as §1, §2, §3

m5 mACHR = biological target: T2, m5 mACHR (Homo sapiens, UniProt P08912); assay: Focus assay after transfection of NIH/3T3 cells, pDS m5; assay type: cell-based; details: for Focus-forming activity: pDS m5
T2 construct: carbachol-dependent focus formation
T2 sequence (P08912 1-532): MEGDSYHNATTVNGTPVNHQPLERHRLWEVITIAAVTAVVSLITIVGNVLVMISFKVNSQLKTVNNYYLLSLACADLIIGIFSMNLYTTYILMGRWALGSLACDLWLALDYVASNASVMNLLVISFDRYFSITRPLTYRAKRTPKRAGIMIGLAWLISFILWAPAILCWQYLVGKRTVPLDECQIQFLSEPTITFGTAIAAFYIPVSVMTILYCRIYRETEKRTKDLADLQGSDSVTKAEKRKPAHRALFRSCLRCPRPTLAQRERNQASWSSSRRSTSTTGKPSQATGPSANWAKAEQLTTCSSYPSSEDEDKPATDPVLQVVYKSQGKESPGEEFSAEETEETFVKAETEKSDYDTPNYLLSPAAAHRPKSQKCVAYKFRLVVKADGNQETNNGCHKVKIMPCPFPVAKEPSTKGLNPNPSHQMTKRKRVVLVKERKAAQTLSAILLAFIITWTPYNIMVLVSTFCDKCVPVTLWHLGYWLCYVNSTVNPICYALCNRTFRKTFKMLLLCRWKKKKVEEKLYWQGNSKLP
Source text: as §1, §2, §3

NIH/3T3 cells [6] = assay: Focus assay after transfection of NIH/3T3 cells, pDS vector; assay type: cell-based, murine
Source text: as §1, §2, §3

NIH/3T3 cells [7] = details: neo, binding 0
NIH/3T3 cells [8] = assay: PI hydrolysis in neo NIH/3T3 cells; assay type: cell-based, murine; details: Mus musculus, NIH3T3, 1 h, binding 0, read-out: PI Hydrolysis Maximal activation
Source text: Phosphatidylinositol Hydrolysis.
EC50, half maximal concentration.

m4 mACHR [9] = biological target: T3, m4 mACHR (Homo sapiens, UniProt P08173); assay: cAMP assay, forskolin-stimulated, m4 clones; assay type: cell-based; design: expressed in transfected cells; host or cells: NIH/3T3 murine fibroblasts (plasmid pDS m4); details: 1 mM carbachol, m4 (FIG. 4)
T3 sequence (P08173 1-479): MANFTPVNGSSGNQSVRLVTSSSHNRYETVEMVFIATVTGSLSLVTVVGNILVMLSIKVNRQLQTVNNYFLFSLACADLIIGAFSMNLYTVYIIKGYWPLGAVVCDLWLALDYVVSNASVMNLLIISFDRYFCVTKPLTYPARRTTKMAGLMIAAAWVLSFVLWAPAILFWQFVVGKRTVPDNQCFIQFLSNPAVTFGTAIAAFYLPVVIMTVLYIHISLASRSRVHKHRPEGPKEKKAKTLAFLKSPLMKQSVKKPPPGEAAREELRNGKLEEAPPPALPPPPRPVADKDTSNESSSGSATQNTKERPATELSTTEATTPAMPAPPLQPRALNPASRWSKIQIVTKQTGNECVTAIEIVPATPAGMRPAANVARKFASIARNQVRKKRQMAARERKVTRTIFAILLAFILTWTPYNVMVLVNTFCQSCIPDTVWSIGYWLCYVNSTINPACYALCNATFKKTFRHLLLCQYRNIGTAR

m1, m2, m3 or m4 mACHRs = assay: cAMP assay without forskolin; details: 1 mM carbachol, 10 min
m4 mACHR [10] = biological target: T3, m4 mACHR; assay: Focus assay after transfection of NIH/3T3 cells, pDS m4; assay type: cell-based; design: expressed in transfected cells; host or cells: NIH/3T3 murine fibroblasts (plasmid pDS m4); details: for Focus-forming activity: pDS m4
Source text: as §1, §2, §3

CN1[C@@H]2CC[C@H]1C[C@@H](OC(=O)C(CO)c1ccccc1)C2 (stereo partly shown) [atropine]
foci of transformation in cells maintained in atropine [1]: No foci of transformation were observed
carbachol induced focus-formation in presence of atropine ([1]; data not shown): abolished

C[N+]1(C)C2CC(OC(=O)C(CO)c3ccccc3)CC1C1OC12 (stereo not shown) [[^3 H]NMS, N-methylscopolamine]
Binding (m2 mACHR [2]; G418 selected m2 clone (Table 3)): 308 fmoles [^3 H]NMS/mg protein
Binding [3H]NMS (m2 mACHR [2]; mass culture, pDS m2): 90 fmoles [^3 H]NMS/mg protein
Binding [3H]NMS (NIH/3T3 cells [3]; mass culture, pDS): < 1 fmoles [^3 H]NMS/mg protein
Binding (NIH/3T3 cells [3]; neo clone (Table 3)): 0 fmoles [^3 H]NMS/mg protein

C[N+](C)(C)CCOC(N)=O [carbachol]
cAMP levels in forskolin treated cells (m2 mACHR [4]): decreased
Focus-forming activity (m2 mACHR [5]; carbachol 10^-4 M): < 1 per pmol DNA
Focus-forming activity (m2 mACHR [5]; carbachol 10^-6 M): < 1 per pmol DNA
foci of transformation in presence of carbachol (m2 mACHR [5]; m2 transfected cultures): not m2 or m4
Focus-forming activity (m5 mACHR; carbachol 10^-4 M): 47 per pmol DNA
Focus-forming activity (m5 mACHR; carbachol 10^-6 M): < 5 per pmol DNA
foci of transformation in presence of carbachol (m5 mACHR; m5 transfectants): foci of transformation readily appeared
Focus-forming activity (NIH/3T3 cells [6]; carbachol 10^-4 M): < 1 per pmol DNA
Focus-forming activity (NIH/3T3 cells [6]; carbachol 10^-6 M): < 1 per pmol DNA
Transformation Maximal transportation (NIH/3T3 cells [7]): 0
Emax (NIH/3T3 cells [8]): 100%
cAMP levels in forskolin treated cells (m4 mACHR [9]): decreased
cAMP accumulation without forskolin (m1, m2, m3 or m4 mACHRs): did not accumulate detectable cAMP
Focus-forming activity (m4 mACHR [10]; carbachol 10^-4 M): < 1 per pmol DNA
Focus-forming activity (m4 mACHR [10]; carbachol 10^-6 M): < 1 per pmol DNA
foci of transformation in presence of carbachol (m4 mACHR [10]; m4 transfected cultures): not m2 or m4
